According to paper doi:10.1101/362830v1 (biorxiv, 2018):

Columns and labels:
Assay type in all cases: biochemical
D14 [1] = biological target: T1, D14 (Oryza sativa, UniProt Q10QA5); experiment: inhibition of YLG hydrolysis, fluorescence
T1 sequence (Q10QA5 54-318): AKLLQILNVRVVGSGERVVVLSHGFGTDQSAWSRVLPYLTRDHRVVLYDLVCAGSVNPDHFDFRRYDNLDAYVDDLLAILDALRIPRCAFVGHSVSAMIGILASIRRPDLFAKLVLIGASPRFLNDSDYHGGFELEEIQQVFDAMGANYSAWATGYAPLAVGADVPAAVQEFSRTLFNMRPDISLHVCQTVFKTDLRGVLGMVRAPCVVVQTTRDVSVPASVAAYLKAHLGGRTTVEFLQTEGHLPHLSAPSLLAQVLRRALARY

ShHTL7 = biological target: T2, ShHTL7 (Striga hermonthica, UniProt A0A0M3PNA2); experiment: inhibition of YLG hydrolysis, fluorescence
T2 sequence (A0A0M3PNA2 1-271): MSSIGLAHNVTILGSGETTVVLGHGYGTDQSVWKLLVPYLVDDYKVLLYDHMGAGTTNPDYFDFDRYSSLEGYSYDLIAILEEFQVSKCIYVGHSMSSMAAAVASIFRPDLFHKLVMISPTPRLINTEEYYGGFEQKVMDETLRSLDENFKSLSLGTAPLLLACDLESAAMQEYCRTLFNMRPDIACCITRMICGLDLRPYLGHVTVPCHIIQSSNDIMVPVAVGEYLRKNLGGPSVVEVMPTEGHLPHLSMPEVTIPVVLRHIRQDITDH

D14 [2] = biological target: T1, D14; experiment: fluorogenic hydrolysis, ex […] nm, em […] nm; settings: read-out: Km^YLG; 100 mM PBS pH 7.3, 0.1% DMSO, 30 °C; no inhibitor

IC50 (D14 [1]) [µM] | IC50 (ShHTL7) [µM] | Km (D14 [2]) [µM] | SMILES
1.8 |  |  | O=C(N1CCc2ccccc21)n1ccnn1 [compound 26, indolin-1-yl(1H-1,2,3-triazol-1-yl)methanone]
7.9 |  |  | O=C(N1CCc2ccccc21)n1nccn1 [compound 26, indolin-1-yl(2H-1,2,3-triazol-2-yl)methanone]
5.8 | 0.15 |  | CC1=C[C@@H](O/C=C2/C(=O)O[C@@H]3c4ccccc4C[C@H]23)OC1=O [GR24]
 |  | 1.84 | CCOC(=O)c1ccccc1-c1c2ccc(=O)cc-2oc2cc(OC3C=C(C)C(=O)O3)ccc12 (centres unmarked) [Yoshimulactone Green]
